A word on the melting point: it is the temperature of the solid-liquid transition.

On to `O=C(C(=O)c1cccc(Br)c1)c1ccccc1`, for which the melting point lay in the range of 78 to 82 °C.

The compound `CCOc1cc2c(-c3ccnc(Cl)c3)c(C(=O)OC)c(C(=O)OC)cc2cc1OC` returned a melting point of 196 to 198 °C.

`O=c1c2c(CSc3ncnc4[nH]cnc34)cccc2nc(C(F)(F)F)n1-c1ccccc1Cl`: the melting point is 218 to 219 °C.

Regarding `c1csc(-c2ccc(-c3cccs3)c3nsnc23)c1`, the melting point fell in the range of 121 to 122 °C.

In turn, `Cc1ccc(C(=O)COc2cc(C)cc(C)c2C)cc1` displayed a melting point of 94 to 95 °C.

For `COC(=O)CCCc1cc2cc(Cl)ccc2n1S(=O)(=O)c1c(C)nn(C)c1C`, the melting point was 125 to 127 °C.

Take `COc1ccc([C@H](Sc2ccccc2N)[C@@H](O)C(N)=O)cc1`: the melting point lay in the range of 110 to 112 °C.

As for `CC(CC(=O)O)c1ccc(-c2ccc(F)cc2F)cc1` (stereo not drawn), the melting point was 109 to 110 °C.

The compound `Cc1ccc(CCC(=O)NC(C)c2ccc(NS(C)(=O)=O)c(F)c2)cc1C` (stereo not drawn) returned a melting point of 176 to 177 °C.

On to `CC1(C)CCCC(C)(C)N1Cc1ccc2cc(NC(=O)c3ccc(-c4ccccc4)cc3)ccc2n1`, for which the melting point fell in the range of 200 to 201 °C.

`CCOC(=O)c1ncc2[nH]c3ccc(N)cc3c2n1` yielded a melting point of 256 to 258 °C.

Take `CC(=O)N[C@@H](CSC(=O)C(C)C)C(=O)OC(C)C`: the melting point lay in the range of 59 to 59.5 °C.

`O=C(Nc1ccc(I)cc1Cl)C(F)(F)F` had a melting point of 51 to 52 °C.

`O=C(CC1CCCC1)c1ccc[nH]1` displayed a melting point of 49 to 51 °C.

As to `Cc1ccc(C(=O)c2c(Cl)cc(Cl)cc2Cl)cc1C(C)c1ccc(=O)[nH]n1` (stereo not drawn), the melting point lay in the range of 221 to 222 °C.

With `NC(=O)C(Cc1ccccc1N1CCCCC1)c1ccc(C(=O)O)cc1` (stereo not drawn), the melting point fell in the range of 175 to 177 °C.

As to `CCn1ncnc1COc1nc2c(cc1C(C)(C)C)nnn2-c1cc(F)ccc1F`, the melting point lay in the range of 148 to 150 °C.

For `COc1cccc(NC(=O)NC2N=C(C(C)C)c3ccccc3N(CC(=O)N3CC4CCC(CC4)C3)C2=O)c1` (stereo not drawn), the melting point lay within 139 to 142 °C.

The compound `Cc1cccc(C)c1OC(C)C(=O)OC1CC(O)C=C2C=CC(C)C(CCC3CC(O)CC(=O)O3)C21` (mixture of isomers) came in with a melting point of 85 to 88 °C.

Compound `O=c1n(CCCN2CCN(c3ccccc3)CC2)nc2n1-c1ccccc1OC2` gave a melting point of 94 to 96 °C.

Compound `CS(=O)(=O)N(Cl)C(=O)c1cc(Oc2ccc(Cl)cc2Cl)ccc1[N+](=O)[O-]` displayed a melting point of 161 to 163 °C.

For the compound `CCON=C(CC)C1=C(O)CC(c2cccc3sccc23)CC1=O` (stereo not drawn), the melting point was 76 °C.

For the compound `CSC(=NS(=O)(=O)c1ccccc1-c1ccccc1)SC`, the melting point was 115 to 117 °C.

Compound `COc1cccc2c1CC(C(=O)NCCOc1ccc(C(=O)O)cc1)N2S(=O)(=O)c1ccc(-c2ccc(F)cc2)cc1` (stereo not drawn) yielded a melting point of 113 °C.

As for `CS(=O)c1nccc(-c2cn(Cc3ccccc3C#N)c(=O)n2-c2ccc(F)cc2)n1` (stereo not drawn), the melting point is 133 to 136 °C.

Compound `CCCCOC(=O)CNC(=O)c1ncccc1OC` showed a melting point of 60 to 62 °C.

`c1cc2[nH]ncc2cc1NC1CC2CCC(C1)N2` (stereo not drawn) yielded a melting point of 236 to 238 °C.

Regarding `O=C(c1ccc(O)cc1)c1ccc(OCCO)cc1`, the melting point is 146 to 147 °C.

`CCOC(=O)COc1ccc(C2=NNC(=O)CC2)cc1` gave a melting point of 127 to 129 °C.

`COC1=CC(=O)C2CC(O[Si](C)(C)C)=CC(OC)C2C1=O` (stereo not drawn): the melting point fell in the range of 108 to 110 °C.

`CCCCCCCCCCCCCC(=O)c1c(O)c(C)c(C)c(O)c1CCC` returned a melting point of 70 °C.

Turning to `CN1CCc2c(-c3ccc(F)cc3)ccc([N+](=O)[O-])c2C1`, the melting point lay in the range of 140 to 143 °C.

For the compound `CCCCCS(=O)(=O)NC(=O)CCc1ccc(OCCN2CCCC2=O)cc1Oc1ncc(C(F)(F)F)cc1Cl`, the melting point fell in the range of 123 to 126 °C.

`O=C(CCCc1ccccc1)N[C@H](Cc1cccc(C(F)(F)F)c1)[C@@H](O)c1ccc(F)cc1` (racemic) registered a melting point of 110 to 111 °C.

For `CC(C)(C)c1cc(N(C(=O)CCC(=O)O)c2ccccc2)cc(C(C)(C)C)c1O`, the melting point fell in the range of 205 to 208 °C.

Consider `Cc1oc(-c2ccc(C(F)(F)F)cc2)cc1C(=O)Nc1cccc(CCC(=O)O)c1`, for which the melting point lay in the range of 200 to 201 °C.

`CC(C)CN(CC(O)(Cn1cncn1)c1ccc(Cl)cc1Cl)S(C)(=O)=O` (stereo not drawn) displayed a melting point of 128 to 129 °C.

Regarding `CS(=O)c1cc2ccccc2[nH]1` (stereo not drawn), the melting point was 140 to 144 °C.

The compound `CC(=O)Nc1cccc2c1C(=O)OC2=O` yielded a melting point of 180 to 183 °C.

As to `CC(=Cc1ccc(C(=O)O)cc1)c1ccc2c(c1)SCCC2(C)C`, the melting point lay in the range of 255 to 257 °C.

Compound `O=C(O)CCCCN1CCN(C2=Nc3ccccc3Sc3ccc(Cl)cc32)CC1` returned a melting point of 220 to 221 °C.

Compound `CC#CCOc1ccc(S(=O)(=O)N2CCOCC2C(=O)NO)cc1` (stereo not drawn) returned a melting point of 68 to 72 °C.

In turn, `C/C(=N\OCCOc1ccc(C(=O)O)cc1Cl)c1ccc(C(C)(C)C)cc1` had a melting point of 167 to 169 °C.

The compound `CSc1nc(C)cc(O)n1` displayed a melting point of 149 °C.

Regarding `CC(C)Cn1nc(-c2ccccc2)c(-c2ccccc2)c1CCl`, the melting point was 92 °C.

The compound `COc1ccc(CNc2ncnc3c2ncn3C2OC(CNC(C)=O)C(O)C2O)cc1` (stereo not drawn) had a melting point of 121 to 122 °C.

The compound `O=C1N(Cc2c[nH]cn2)CCN1c1cccc(Cl)c1` came in with a melting point of 201 to 203 °C.

With `Cc1cc(CCCCCCCCCCc2cc(C)c(O)c(C(C)(C)C)c2)cc(C(C)(C)C)c1O`, the melting point is 96 to 98 °C.

For the compound `CCn1c(=O)c2[nH]c(/C=C/c3ccc(OC)c(F)c3)nc2n(CC)c1=O`, the melting point was above 270 °C.

On to `COc1ccc2c(-c3ccccc3)c(C(=O)O)c(=O)[nH]c2c1`, for which the melting point was in the range of 292 to 294 °C.

Compound `COc1ccc(OC)c2c1C(=O)c1c(O)c3c(c(O)c1C2=O)CC(=O)CC3` displayed a melting point of 173 to 174 °C.

The compound `CCOC(=O)c1cn(C(C)C(=O)c2ccccc2)c2nc(-c3ccccc3)c(C)n2c1=O` (stereo not drawn) yielded a melting point of 177 to 178 °C.

In the case of `CCOC(=O)N(C)C1CCN(c2nc3ccccc3n2Cc2ccc(F)cc2)CC1`, the melting point was determined as 125 °C.

Consider `Cc1cccc(NC(=O)NCCC(=O)O)c1`, for which the melting point was 166 °C.

`Cc1cc(CO)cc(Oc2nc(Cl)nc(Cl)c2C(C)C)c1` registered a melting point of 140 to 141 °C.

The compound `CCCN[C@H]1CC[C@H](Oc2ccc3[nH]ncc3c2SC)CC1` came in with a melting point of 168 to 169 °C.

`COc1cc(-c2ccc(O)c(C(C)(C)C)c2)cc(C=C2SC(N(C)C)=NC2=O)c1O` displayed a melting point of 272 to 274 °C.

Compound `CC(=O)c1sc(-c2ccc(-c3ccccc3)cc2)nc1C` yielded a melting point of 124 to 125 °C.

As to `CN(CC(O)c1ccc(Cl)c(Cl)c1)C(=O)OC(C)(C)C` (stereo not drawn), the melting point was 88 °C.

`CCCCCCC(=O)c1ccc(OCCN2CCN(c3cc(Cl)nnc3Cl)CC2)cc1` returned a melting point of 113 to 115 °C.

`COCCCNc1nc(N)c(C(=O)c2ccccc2[N+](=O)[O-])s1` displayed a melting point of 170 to 172 °C.

As to `Cc1c(Cc2cccc(C(F)(F)F)c2)oc2cccc(-c3cccc(C(=O)NCCC#N)c3)c12`, the melting point was in the range of 108 to 109 °C.

In turn, `CCOc1ccc2[nH]c(=O)n(N3CCN(C)CC3)c2c1` had a melting point of 108 °C.

Regarding `CCCCCCOC1=c2ccc3c(c2=C(c2ccc4c(c2)OCO4)C(C)(C(=O)OC)C1(C)C(=O)OC)OCO3` (stereo not drawn), the melting point lay within 110 to 111 °C.

The compound `C[Si](C)(C)c1cccc(NC(=O)c2ccc(C(=O)O)cc2)c1` registered a melting point of 211 to 213 °C.

With `Cn1cnc2c1ccn1c(=O)c(-c3ccc(OCc4ccccc4)cc3)cc(C(=O)O)c21`, the melting point is 227 to 229 °C.

For `CC(C)(C)SC1CN(C(=O)OCc2ccccc2)CC1NS(=O)(=O)c1ccc(Oc2ccccc2)cc1` (stereo not drawn), the melting point was 125 to 126 °C.

On to `Cc1[nH]c(-c2ccccc2)c(NC(C)C)c1C(=O)c1ccccc1`, for which the melting point is 132 to 136 °C.

Consider `Cc1c(C(=O)c2cc(O)c(O)c([N+](=O)[O-])c2)[nH]c2ccccc12`, for which the melting point was 212 to 214 °C.

As for `Cc1cc(C(O)(C(F)(F)F)C(F)(F)F)cc(C)c1S`, the melting point lay within 62 to 64 °C.

`CCCCCCCCCCCCCCCCNc1ccc(C(=O)NCCS(=O)(=O)O)cc1` yielded a melting point of 190 to 220 °C.

On to `CCOCN1C(C)=C(C(=O)O)C(c2cccc([N+](=O)[O-])c2)C(C(=O)O)=C1C`, for which the melting point lay within 175 to 176 °C.

For `Cc1cc(C)cc(-n2ncc(-c3ccc(S(C)(=O)=O)cc3)c(-c3ccc(F)cc3)c2=O)c1`, the melting point is 130 to 134 °C.

On to `NC(=O)NC1CCCc2ccsc21` (stereo not drawn), for which the melting point fell in the range of 211 to 213 °C.

`O=c1[nH]c2ccccc2n1CCN1CCN(c2cc(C(F)(F)F)ccc2O)CC1` returned a melting point of 158 to 160 °C.

Regarding `CC(=O)Nc1cccc(OCc2cc([N+](=O)[O-])ccc2C(=O)O)c1`, the melting point stood at 225 °C.

`CN(Cc1ccc(-c2ccc(N3C[C@H](Cn4ccnn4)OC3=O)cc2F)cn1)CC(O)CO` (stereo partly drawn) returned a melting point of 123 °C.

`COC(=O)C(=O)c1cc2cc(C#N)ccc2o1` displayed a melting point of 196 to 199 °C.

On to `CCOC(=O)c1cc(O)n(-c2ccccc2)n1`, for which the melting point lay within 183 to 184 °C.

`C/C(=C\C(=O)NC1CC1)c1cccc(F)c1` had a melting point of 119 °C.

For `CC(C)(C)c1ccc(OCCC(=O)O)c(C(C)(C)C)c1`, the melting point was 105 to 106 °C.

The compound `NS(=O)(=O)C1=CCC(n2nc(C(F)(F)F)c3ccc4ccccc4c32)C=C1` (stereo not drawn) gave a melting point of 257 to 258 °C.

`CCOC(=O)c1cc2cc(-c3ccc(N)cc3)ccc2o1` displayed a melting point of 95 to 97 °C.

As to `N#CC(C=O)=C(c1ccc(F)cc1)c1ccc(F)cc1`, the melting point is 167 to 169 °C.

Turning to `O=c1c2ccc(Cl)cc2[nH]c2c(=O)n(-c3ccc(Cl)cc3Cl)nc(O)c12`, the melting point lay in the range of 342 to 343 °C.

As for `COc1cccc2[nH]cc(/C(C#N)=C/c3cccnc3)c12`, the melting point worked out at 177 °C.

`CC(C)(C)Oc1ccc(C(N)=O)cc1` showed a melting point of 135 to 136 °C.

Compound `O=C(O)CCCc1cc2nc(Cl)ccc2n1S(=O)(=O)c1ccc(C(F)(F)F)cc1` had a melting point of 185 °C.

The record behind these values is a melting point compilation (Tetko et al.; mined from patent text by program, amines drawn as free bases though some values may be those of a salt).
